# Where two headings read alike, the source gives them in different places. Non-standard residues stand in square brackets, D forms with d. Residues, ends and D or L forms follow the SMILES beside them. No end group written: not given here. Dap = NC[C@H](N)C(=O)O
# Experiments:
# S. aureus ATCC: 27660 = type: cell-based, Staphylococcus aureus
# Procedure: (§1) Each bacterial strain was streaked onto LB–Miller agar (BD-Difco, Franklin Lakes, NJ, USA) plates from a frozen stock collection (E. coli D31 [63] S. aureus ATCC: 27660, B. subtilis ATCC: 6051, P. aeruginosa PAO1 [17], and A. baumannii ATCC: 19606). After incubation to allow colony growth, plates stored in a refrigerator at 4 °C. Overnight cultures were inoculated with a single colony of each bacterial strain into fresh LB or Mueller Hinton broth (MH, BD-Difco) in sterile glass test tubes. Inoculated samples were placed in a 37 °C shaking incubator (250 rpm) for ~18 h. After the overnight incubation, a 1:200 dilution of the culture was made in fresh LB or MH for use in subsequent experiments.
# (§2) Bacterial growth inhibition was investigated using the standard minimal inhibitory concentration (MIC) assay. Cultures of bacteria were grown as described above, subsequently diluted to ~10^5 cfu/mL in MH media. Subsequently, 90 μL of this diluted culture was added to wells of a sterile 96-well plate containing serially diluted aliquots of the peptides for a final volume in the well of 100 μL. The plate was covered and incubated at 37 °C for 18 h. After incubation the OD600 was measured with a Spectramax M5 multimode plate reader. Next, the minimal bactericidal concentration (MBC) was determined by taking 1 μL of culture from each well on the plate corresponding to peptide concentrations at and above the MIC and plating on a fresh LB-agar plate. The plate incubated overnight at 37 °C, and MBC was determined from the presence or absence of growth on each spot.
# E. coli outer membrane = E. coli outer membrane permeabilization (β-lactamase / nitrocefin); type: cell-based; conditions: E. coli D31 in PBS, peptide up to 15 µM, 30 min exposure, absorbance 486 nm, at least 3 replicates
# Procedure: Permeabilization of the E. coli outer membrane is monitored using the periplasmic enzyme β-lactamase and the chromogenic substrate nitrocefin. […] The full time course of the permeabilization assay is shown in the supplementary files (Figure S1).
# (§3) Figure 4 E. coli membrane permeabilization. Chromogenic substrate breakdown after 30 min of exposure to peptides. (A) Outer membrane permeabilization assayed by nitrocefin breakdown. (B) Inner membrane permeabilization assayed by ONPG breakdown. In both panels colors represent C18G (green), C18G-Arg (red), C18G-His (gray), C18G-Orn (orange), C18G-Dap (blue).
# Permeabilization of the E. coli outer membrane was performed as described previously. Briefly, a single colony of E. coli D31 was inoculated in LB Broth (Difco) containing […] ampicillin and allowed to grow at 37 °C with shaking overnight. The culture was diluted 1:200 in LB-Amp and incubated at 37 °C until the OD600 was ~0.2. The culture was subsequently centrifuged at 2500 rpm for 15 min. The pellet was resuspended in an equal volume of PBS and added to a 96-well plate containing serially diluted peptides or polymyxin B (positive control). Immediately before reading, nitrocefin was added to the wells (final concentration 0.25 mg/mL) and mixed by pipetting. The sample absorbance was measured at 486 nm for 90 min. All assays were performed at least in triplicate.
# E. coli inner membrane = E. coli inner membrane permeabilization (β-galactosidase / ONPG); type: cell-based; conditions: peptide up to 15 µM, 30 min time point, absorbance 420 nm, at least 3 replicates
# Procedure: as §3
# Permeabilization of the E. coli inner membrane is monitored with the cytoplasmic enzyme β-galactosidase and the chromogenic substrate ortho-nitrophenyl-β-galactoside (ONPG). This assay in conceptually similar to the outer membrane assay described above, but is focused only on the permeability of the inner membrane. The results are shown in Figure 4B for the 30 min time point of the assay, and the full time course is shown in the supplementary figures (Figure S2).
# Inner membrane permeabilization was performed as described previously. The procedure follows that of the outer membrane permeabilization assay, described above, with several modifications. Bacteria were grown overnight in LB media lacking Amp, and dilutions were made in LB supplemented with IPTG. Assay plates were prepared the same, except that cells were not centrifuged before the assay, and were added to the plate directly in the culture medium. Positive control for the inner membrane assay was the cationic detergent CTAB. The substrate was ONPG dissolved in Z-buffer added to a final concentration 0.6 mg/mL in the wells. The sample absorbance was measured at 420 nm for 90 min. All assays were performed at least in triplicate
# B. subtilis ATCC: 6051 = type: cell-based, Bacillus subtilis
# Procedure: as §1, §2
# S. aureus membrane = S. aureus membrane permeabilization (propidium iodide, flow cytometry); type: cell-based; conditions: 30 min, relative to CTAB positive control
# Procedure: The membrane architecture varies greatly between Gram-positive and Gram-negative bacteria. The ability of the peptides to permeabilize a Gram-positive bacterial membrane was also investigated; however, in this case, the use of a bacterial enzyme and chromogenic substrate was not possible. Instead, membrane permeability was assessed using the DNA binding fluorophore propidium iodide (PI). The PI molecule is generally impermeable across the cell membrane under normal conditions, but upon permeabilization, PI can readily cross the membrane and bind to DNA, resulting in a dramatic increase in fluorescence emission intensity.
# Figure 5 Membrane permeabilization. (A) Permeabilization of S. aureus membranes by peptides. Cultures of S. aureus were incubated with varying concentrations of peptide and 3.75 µg/mL propidium iodide (PI). PI fluorescence was measured via flow cytometry after 30 min of exposure to peptides. Percent leakage was determined based on the positive control CTAB (data not shown). (B) Peptide induced hemolysis. Defibrinated sheep red blood cells were incubated for 1 h with varying concentrations of peptide or control at 37 °C in sterile PBS. After pelleting the remaining cells, the absorbance of the supernatant was measured at 415 nm to detect released hemoglobin. Percent leakage was determined based on the positive control CTAB (Figure S3). All data is the average of at least 3 replicates, where error bars represent the standard deviation.
# Flow cytometry was used to identify cell permeability by incorporation of propidium iodide (PI) into S. aureus under various concentrations of CTAB detergent, C18G, C18G-Arg, C18G-His, C18G-Orn, C18G-Dap peptides using a BD FACSCelesta flow cytometer. Approximately 10,000 cells per sample in 100 µL of PBS, permeabilization reagent, and PI 5.6 μM solution, were incubated for 30 min or 45 min at 23 °C counted in duplicate, and fluorescent signal was evaluated Ex 488 nm laser, Em 575 filter. Percentage of cells found to be permeable for all samples was established by gating around cells on histogram illustrating PI signal with known complete permeabilization CTAB 102 µM.
# [1] = Trp fluorescence binding to lipid vesicles; conditions: 2 µM peptide in PBS pH 7.0 titrated with SUVs up to 300 µM lipid, excitation 280 nm, 2-5 replicates
# Source text: Based on the proposed mechanism of membrane disruption, the ability of the C18G peptides to interact with lipid vesicles was investigated. All of the sequences contain a Trp residue which can be used as a reporter of the local environment. As the peptide moves from the aqueous milieu to the bilayer surface, the Trp experiences a significant change in the polarity of the local environment. This change in environmental polarity results in a shift of the Trp emission spectrum from more red-shifted (aqueous) to more blue-shifted (bilayer bound). […] The shift in the emission spectrum can be quantified by changes in […] (λmax) or by a shift in the spectral barycenter.
# Figure 2 Trp fluorescence emission to measure peptide binding to vesicles. […] Trp emission barycenter was calculated after each addition of vesicles and plotted as a function of total lipid concentration. […]
# Measurements were performed on a JY-Horiba fluoromax4 instrument with emission and excitation slits set to 2.5 nm. For lipid binding/titration assays, samples were excited at 280 nm with emission measured over the range of 300–400 nm. […] The barycenter of the spectrum is an intensity-weighted average over the wavelengths measured, and Δbarycenter is the difference between the barycenter of the sample lacking lipid, and that of a given sample [32, 65]. […]
# [2] = MH media, ~10^5 cfu/mL, 37 °C, 18 h, OD600
compound,measurement,setting,value
CC(C)C[C@H](NC(=O)[C@H](C)N)C(=O)N[C@@H](Cc1c[nH]c2ccccc12)C(=O)N[C@@H](CN)C(=O)N[C@@H](CN)C(=O)N[C@@H](CC(C)C)C(=O)N[C@@H](CC(C)C)C(=O)N[C@@H](CN)C(=O)N[C@@H](CN)C(=O)N[C@@H](CC(C)C)C(=O)N[C@@H](CC(C)C)C(=O)N[C@@H](CN)C(=O)N[C@@H](CO)C(=O)N[C@@H](C)C(=O)N[C@@H](CN)C(=O)N[C@@H](CN)C(=O)N[C@@H](CC(C)C)C(=O)NCC(N)=O [C18G-Dap] (H-ALW[Dap][Dap]LL[Dap][Dap]LL[Dap]SA[Dap][Dap]LG-NH2),S. aureus MBC,"S. aureus ATCC: 27660; ATCC: 27660, 18 h",7.5 µM
same,S. aureus MIC,"S. aureus ATCC: 27660; ATCC: 27660, 18 h",7.5 µM
same,Fold increase in MIC relative to the parent sequence,S. aureus ATCC: 27660; against S. aureus,≤ 4 fold
same,Outer membrane permeabilization (nitrocefin breakdown),E. coli outer membrane,permeabilization to a lesser extent
same,Inner membrane permeabilization (ONPG breakdown),E. coli inner membrane,little to no permeabilization
same,B. subtilis MBC,"B. subtilis ATCC: 6051; ATCC: 6051, 18 h",1.875 µM
same,B. subtilis MIC,"B. subtilis ATCC: 6051; ATCC: 6051, 18 h",1.875 µM
ALWKKLLKKLLKSAKKLG-NH2 [C18G],S. aureus MBC,"S. aureus ATCC: 27660; ATCC: 27660, 18 h",3.75 µM
same,S. aureus MIC,S. aureus ATCC: 27660; [2],1.875 µM
same,Outer membrane permeabilization (nitrocefin breakdown),E. coli outer membrane,near maximal permeabilization observed above 3.75 µM
same,Inner membrane permeabilization (ONPG breakdown),E. coli inner membrane,highest degree of permeabilization
same,B. subtilis MBC,"B. subtilis ATCC: 6051; 1 µL from wells at and above MIC plated on LB-agar, overnight 37 °C",1.875 µM
same,B. subtilis MIC,B. subtilis ATCC: 6051; [2],1.875 µM
CC(C)C[C@H](NC(=O)[C@H](C)N)C(=O)N[C@@H](Cc1c[nH]c2ccccc12)C(=O)N[C@@H](CCCN)C(=O)N[C@@H](CCCN)C(=O)N[C@@H](CC(C)C)C(=O)N[C@@H](CC(C)C)C(=O)N[C@@H](CCCN)C(=O)N[C@@H](CCCN)C(=O)N[C@@H](CC(C)C)C(=O)N[C@@H](CC(C)C)C(=O)N[C@@H](CCCN)C(=O)N[C@@H](CO)C(=O)N[C@@H](C)C(=O)N[C@@H](CCCN)C(=O)N[C@@H](CCCN)C(=O)N[C@@H](CC(C)C)C(=O)NCC(N)=O [C18G-Orn] (HELM PEPTIDE1{A.L.W.[Orn].[Orn].L.L.[Orn].[Orn].L.L.[Orn].S.A.[Orn].[Orn].L.G.[am]}$$$$V2.0),S. aureus MBC,"S. aureus ATCC: 27660; ATCC: 27660, 18 h",1.875 µM
same,S. aureus MIC,"S. aureus ATCC: 27660; ATCC: 27660, 18 h",1.875 µM
same,Outer membrane permeabilization (nitrocefin breakdown),E. coli outer membrane,near maximal permeabilization observed above 3.75 µM
same,Inner membrane permeabilization (ONPG breakdown),E. coli inner membrane,very little observed leakage
same,B. subtilis MBC,"B. subtilis ATCC: 6051; ATCC: 6051, 18 h",7.5 µM
same,B. subtilis MIC,"B. subtilis ATCC: 6051; ATCC: 6051, 18 h",3.75 µM
same,Percent leakage (PI) of S. aureus membrane,S. aureus membrane; through 1.88 µM peptide,> 50%
ALWRRLLRRLLRSARRLG-NH2 [C18G-Arg],S. aureus MBC,"S. aureus ATCC: 27660; ATCC: 27660, 18 h",3.75 µM
same,S. aureus MIC,"S. aureus ATCC: 27660; ATCC: 27660, 18 h",3.75 µM
same,Outer membrane permeabilization (nitrocefin breakdown),E. coli outer membrane,near maximal permeabilization observed above 3.75 µM
same,Inner membrane permeabilization (ONPG breakdown),E. coli inner membrane,induced less leakage
same,Binding to 100% PC lipid vesicles (shift of Trp emission barycenter),[1],significant increase in binding to zwitterionic PC membranes compared to C18G
same,B. subtilis MBC,"B. subtilis ATCC: 6051; ATCC: 6051, 18 h",1.875 µM
same,B. subtilis MIC,"B. subtilis ATCC: 6051; ATCC: 6051, 18 h",1.875 µM
same,Percent leakage (PI) of S. aureus membrane,S. aureus membrane; down through 3.75 µM peptide,~ 90%
ALWHHLLHHLLHSAHHLG-NH2 [C18G-His],S. aureus MBC,"S. aureus ATCC: 27660; ATCC: 27660, 18 h",15 µM
same,S. aureus MIC,"S. aureus ATCC: 27660; ATCC: 27660, 18 h",15 µM
same,Outer membrane permeabilization (nitrocefin breakdown),E. coli outer membrane,almost no permeabilization of the outer membrane except at 15 µM
same,Inner membrane permeabilization (ONPG breakdown),E. coli inner membrane,little to no permeabilization
same,Binding to 3:1 PC/PG lipid vesicles (shift of Trp emission barycenter),[1],bound anionic bilayers with higher affinity than zwitterionic bilayers
same,B. subtilis MBC,"B. subtilis ATCC: 6051; ATCC: 6051, 18 h",>15 µM
same,B. subtilis MIC,"B. subtilis ATCC: 6051; ATCC: 6051, 18 h",1.875 µM
same,Percent leakage (PI) of S. aureus membrane,S. aureus membrane; 7.5 µM peptide,> 50%
same,Percent leakage (PI) of S. aureus membrane,S. aureus membrane; 15 µM peptide,> 50%
